The target of test [1] is T1, S. clavuligerus expandase (Streptomyces clavuligerus, UniProt P18548).
T1 construct: endogenous in cells; host or cells: S. clavuligerus mutant NP1, crude cell-free extract
The test can be described thus: Penicillin ring expansion by cell-free S. clavuligerus expandase extracts, paper disc-agar diffusion bioassay. Type of test: biochemical. The conditions noted are these: 4 mg/ml extract protein. The protocol:
Preparation of Cell-free Extracts: Fermentation broths were centrifuged at 8,000×g and 4° C. for 10 min. Pellets were washed twice using 50 mM Tris-HCI supplemented with 0.1 mM dithiothreitol (DTT). The cells were resuspended in the same buffer and disrupted by four 25-sec. sonication treatments (power setting 5 and duty cycle 50%), in an ice-water bath using a Branson 350 sonifier (Branson Sonic Power Co., Danbury, Conn.). Cell debris was removed by centrifugation (14,000×g, 30 min., 4° C.). The resulting extracts containing 8-10 mg protein/ml were placed on ice and utilized immediately. Protein concentrations were measured using the Bio-Rad protein assay (Bio-Rad, Hercules, Calif.). Bovine serum albumin was used as standard.
Ring Expansion Reaction: We defined ring expansion reaction conditions as modifications of the standard reaction mixture for expandase reactions described by Maeda et al. (Maeda et al., Enzyme Microb. Technol. 17:231-34, 1995) except that penicillin G was used a substrate instead of penicillin N. Additions were made following the order established by Shen et al. (Shen et al., Enzyme Microb. Technol. 6:402-404, 1984. Reaction mixtures were incubated in test tubes (cell-free extract) or 250 ml baffled flasks (resting cells) at 220 rpm, 30° C. Reactions containing the protein extract were stopped at various times (see Table 1 and Figure Legends) by mixing 0.5 ml of assay solution with 0.5 ml of methanol. In the case of resting cells, samples were centrifuged to remove cells and supernatants were transferred to new tubes. Expandase activity was detected by paper disc-agar diffusion bioassay.
Detection of Expandase Activity: As mentioned above, expandase activity was detected by assaying production of a growth-inhibitory zone in a paper disc-agar diffusion bioassay. Paper discs were saturated with 200 μl of the reaction mixture (cell-free extracts or supernatant (resting cells) as follows. Two discs were superimposed and four 50 μl samples were applied. After each application, the discs were allowed to dry for 20 min at 37° C. under a laminar hood and, finally, they were placed on LB (1% tryptone, 0.5% NaCl, 0.5% yeast extract, 0.1% glucose) 0.8% agar medium seeded with E. coli ESS (a β-lactam supersensitive mutant), and the plates were incubated overnight at 37° C. The formation of DAOG and/or other cephalosporin(s) was determined by including 50,000 IU/ml of penicillinase (Difco Bacto penase concentrate, Difco Laboratories, Detroit, Mich.) in the assay plates. This penicillinase is a narrow spectrum β-lactamase that attacks penicillins but not cephalosporins. The diameters of zones of growth inhibition were measured and quantified with a calibration curve using DAOG as standard.
Ring Expansion of Other Penicillins by Cell-free Extracts: We tested our reaction conditions for their ability to support ring expansion on other penicillin substrates and found detectable expansion with each of the 15 substrates that we tested. […] The reactions contained 4 mg/ml extract (protein concentration), 50 mM Tris-HCl pH 7.4, 1.8 mM FeSO4, 1.28 mM α-ketoglutarate, 8 mM MgSO4, 8 mM KCl, 4 mM ascorbic acid, 14 mM DTT, and 2 mg/ml substrate (except for penicillin mX and octanoyl-6-APA, which were used at 3 mg/ml). Samples were centrifuged at 12K rpm for 5 minutes after 2 hours of reaction. 250 μl of reaction mixture was used in each bioassay.
A general note: Agar diffusion results depend on both activity and mobility in agar.

Test [2] has as its target T1, S. clavuligerus expandase. To be noted: literature reports (Jensen 1982; Dotzlaf 1989; Yeh 1994; Maeda 1995); cited from earlier work.
Another test addresses T2, C. acremonium expandase (Hapsidospora chrysogena, UniProt P11935).
T2 sequence (P11935 1-332): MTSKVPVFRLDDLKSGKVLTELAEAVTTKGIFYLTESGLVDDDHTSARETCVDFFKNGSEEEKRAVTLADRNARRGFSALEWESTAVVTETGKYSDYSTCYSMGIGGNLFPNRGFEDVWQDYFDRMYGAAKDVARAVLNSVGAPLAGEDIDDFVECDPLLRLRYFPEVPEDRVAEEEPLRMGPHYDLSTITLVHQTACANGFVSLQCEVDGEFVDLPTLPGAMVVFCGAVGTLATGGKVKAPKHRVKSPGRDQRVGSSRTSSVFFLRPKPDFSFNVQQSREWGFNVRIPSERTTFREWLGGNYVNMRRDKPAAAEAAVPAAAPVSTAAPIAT
The conditions noted are these: partially purified enzyme (Kupka et al. 1983); cited from earlier work.

Test [3] addresses T3, expandase from S. clavuligerus (Streptomyces clavuligerus, UniProt P18548).
T3 construct: made in house; host or cells: S. lividans 1326 transformed with pHJ11, crude cell-free extract
Briefly: Ring expansion by cell-free extracts of S. lividans transformant pHJ11 (Example 7). The conditions noted are these: pHJ11 cell-free extract 6 mg/ml protein, substrate 5.6 mM, after 4 h of reaction. Type of test: biochemical. On the procedure: (§1) Microorganism, Medium and Culture Conditions: S. lividans 1326 was used in all experiments. Cultures were grown in 250 ml baffled flasks containing 40 ml of MST medium. Each flask was inoculated with 50 μl of a spore suspension (prepared and stored at −80° C. in 20% glycerol) and incubated at 30° C., 250 rpm, for 48 h.
(§2) Plasmids: The plasmid pUL702-202a was a gift from J. F. Martin (University of León, Spain). This vector harboured a 4.3 Kb BglII fragment containing the epimerase and expandase genes from Nocardia lactamdurans inserted at the BglII site on pIJ702. The plasmid pHJ11 was constructed by cloning a 3 Kb BglII fragment containing the expandase gene from S. clavuligerus 3585 into pIJ702 at the BglII site.
(§3) Ring Expansion Reaction: The ring expansion mixture contained 1.8 mM FeSO4, 1.28 mM α-ketoglutarate, 6 mg/ml protein (cell-free extract), 8 mM KCl, 8 mM MgSO4, 14 mM DTT and 50 mM TrisHCl (pH 7.4) in a final volume of 2.5 ml. Substrate concentration was 5.6 mM. Additions were made following the order established by Shen et al. (Enzyme Microb. Technol. 6:402-404, 1984). Reaction mixtures were incubated in test tubes at 220 rpm, 30° C. At different times, 0.5 ml samples were taken and the reaction was stopped by adding 0.5 ml of methanol. […] Biotransformation activity was detected by paper disc-agar diffusion bioassay. […]

Test [4] deals with T4, expandase from N. lactamdurans (Amycolatopsis lactamdurans, UniProt Q03047).
T4 construct: made in house; host or cells: S. lividans 1326 transformed with pUL702-202a, crude cell-free extract
The test can be described thus: Ring expansion by cell-free extracts of S. lividans containing pUL702-202a (Example 7). The class given is biochemical. To be noted: S. lividans pUL702-202a cell-free extract 6 mg/ml protein, substrate 5.6 mM. On the procedure: as §1, §2, §3

T1 sequence (P18548 whole entry): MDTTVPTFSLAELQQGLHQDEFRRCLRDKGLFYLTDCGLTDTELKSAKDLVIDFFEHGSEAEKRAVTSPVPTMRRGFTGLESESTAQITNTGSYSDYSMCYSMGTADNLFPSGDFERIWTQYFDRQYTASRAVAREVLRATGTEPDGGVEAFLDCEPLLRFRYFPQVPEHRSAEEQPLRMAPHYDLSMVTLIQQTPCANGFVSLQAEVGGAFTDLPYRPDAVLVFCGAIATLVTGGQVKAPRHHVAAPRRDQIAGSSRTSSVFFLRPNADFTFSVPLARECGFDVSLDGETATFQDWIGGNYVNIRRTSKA
T4 sequence (Q03047 whole entry): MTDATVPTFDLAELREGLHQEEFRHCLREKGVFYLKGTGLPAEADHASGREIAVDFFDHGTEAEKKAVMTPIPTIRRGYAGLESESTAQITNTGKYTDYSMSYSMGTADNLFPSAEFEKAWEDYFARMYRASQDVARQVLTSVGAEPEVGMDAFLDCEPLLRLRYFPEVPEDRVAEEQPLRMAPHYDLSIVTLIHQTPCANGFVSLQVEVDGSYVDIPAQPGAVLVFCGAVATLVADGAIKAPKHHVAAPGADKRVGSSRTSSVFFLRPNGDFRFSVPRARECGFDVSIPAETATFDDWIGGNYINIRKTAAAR
T3 sequence (P18548 whole entry): as the sequence (P18548 whole entry) above

Take `CC1(C)S[C@@H]2[C@H](NC(=O)[C@H](N)c3ccccc3)C(=O)N2[C@H]1C(=O)O` [Ampicillin, ampicillin]: the “Ring expansion, size of zones of inhibition” value in test [1] (2 mg/ml substrate (penicillin mX and octanoyl-6-APA 3 mg/ml), 2 hours) is on record as “intermediate size zones”. In test [1] (2 mg/ml substrate, 2 hours of reaction, 250 μl in bioassay (E. coli ESS, penicillinase)), the “Inhibition Zone Diameter” value turned out to be 17 mm. The results for the ring expansion result (in test [2]; at C. acremonium expandase; in test [4]) were “not”, “does not expand” and “expansion was only observed when penicillin G was used as substrate”, respectively. Also, in test [3], the production of cephalosporins entry was “about 1.5 μg/ml”.

Source of the values: patent US6383773B2, “Penicillin conversion” (Massachusetts Institute of Technology, priority 1998, dated 2002).
